Test results as given in DBAASP.
Values after ≈ are worked out from the molar mass of the structure shown. Values joined by “and” are separate entries in the source; they are usually repeats but may differ in a detail not shown here. Equal entries are not always repeated.

Key:
Test in all cases: ≥ marks a high value that may be exact or a test limit, other limits are often not marked, values filed in µg/mL are converted to µM
[1] = tested on: Acinetobacter calcoaceticus ATCC 2305-5
[2] = tested on: Bacillus subtilis ICTA-07
[3] = tested on: Enterococcus faecalis WHO 14
[4] = tested on: Micrococcus luteus ATCC 4698
[5] = tested on: Pseudomonas aeruginosa ATCC 27853
[6] = tested on: Yersinia enterocolitica ATCC 9610
[7] = tested on: Bacillus subtilis PCI 219
[8] = tested on: Escherichia coli NIHJ JC-2
[9] = tested on: Pseudomonas aeruginosa U-31
[10] = tested on: Staphylococcus aureus FDA 209P
[11] = tested on: Bacillus anthracis Sterne 34F2
[12] = tested on: Bacillus subtilis var. niger ATCC 9372
Escherichia coli K91BK = tested on: Escherichia coli K91BK
[13] = tested on: Acinetobacter baumannii KCTC 2508
Acinetobacter baumannii = tested on: Acinetobacter baumannii
[14] = tested on: Bacillus subtilis ATCC 6633
[15] = tested on: Bacillus subtilis KCTC 1918
Campylobacter coli = tested on: Campylobacter coli
Campylobacter jejuni = tested on: Campylobacter jejuni
Campylobacter lari = tested on: Campylobacter lari
[16] = tested on: Candida albicans TIMM 1768
[17] = tested on: Escherichia coli ATCC 33694
[18] = tested on: Escherichia coli KCTC 1682
[19] = tested on: Pseudomonas aeruginosa 3552
[20] = tested on: Pseudomonas aeruginosa KCTC 1637
[21] = tested on: Salmonella typhimurium KCTC 1926
[22] = tested on: Staphylococcus aureus 1870
[23] = tested on: Staphylococcus aureus 3551
[24] = tested on: Staphylococcus aureus 4716
[25] = tested on: Staphylococcus aureus KCTC 1621
[26] = tested on: Staphylococcus epidermidis KCTC 3096
[27] = tested on: Streptococcus pyogenes KCTC 3096
[28] = tested on: Trichosporon beigelii KCTC 7707
Carnobacterium mobile = tested on: Carnobacterium mobile
Fusarium oxysporum = tested on: Fusarium oxysporum
[29] = tested on: Bacillus megaterium KCTC 1096
Proteus vulgaris = tested on: Proteus vulgaris

Q: `CSCC[C@@H]1NC(=O)[C@H](Cc2c[nH]c3ccccc23)NC(=O)[C@H](C)NC(=O)[C@H](Cc2ccc(O)cc2)NC(=O)[C@@H]2CSSC[C@@H]3NC(=O)[C@H](CO)NC(=O)[C@H](Cc4ccc(O)cc4)NC(=O)[C@H](CCCCN)NC(=O)[C@@H](NC(=O)CNC(=O)[C@H](CC(=O)O)NC(=O)[C@H](CC(N)=O)NC(=O)CNC(=O)[C@@H](NC(=O)[C@H](CC(C)C)NC(=O)[C@H](Cc4ccc(O)cc4)NC(=O)CNC(=O)[C@H](CC(=O)O)NC(=O)[C@@H](N)CCCCN)C(C)C)CSSC[C@@H](C(=O)NCC(=O)N[C@@H](CCCN=C(N)N)C(N)=O)NC(=O)[C@H](CCCN=C(N)N)NC(=O)[C@H](CC(N)=O)NC(=O)[C@H]([C@@H](C)O)NC(=O)[C@H](C)NC(=O)[C@H](CCCN=C(N)N)NC(=O)[C@H](CC(N)=O)NC(=O)[C@H](Cc4c[nH]c5ccccc45)NC(=O)[C@H]([C@@H](C)O)NC(=O)[C@H](CCCCN)NC(=O)[C@H](C(C)C)NC(=O)[C@H](Cc4c[nH]c5ccccc45)NC(=O)[C@H](CC(N)=O)NC(=O)[C@@H]4CCCN4C(=O)[C@H](CCSC)NC(=O)[C@H](CO)NC(=O)[C@H](Cc4ccc(O)cc4)NC(=O)[C@@H]4CSSC[C@H](NC(=O)[C@H](CCC(=O)O)NC(=O)[C@H](CC(N)=O)NC(=O)[C@H](C)NC(=O)[C@H](CSSC[C@H](NC(=O)[C@H](C)NC1=O)C(=O)N[C@@H](Cc1ccc(O)cc1)C(=O)N4)NC(=O)[C@H](Cc1ccc(O)cc1)NC(=O)[C@H]([C@@H](C)O)NC(=O)CNC(=O)[C@@H]1CCCN1C(=O)[C@H](CCCN=C(N)N)NC(=O)[C@H]([C@@H](C)O)NC(=O)[C@H](Cc1ccccc1)NC3=O)C(=O)N[C@@H](CO)C(=O)N[C@@H](CCCN=C(N)N)C(=O)N[C@@H](C(C)C)C(=O)N[C@@H](CCCCN)C(=O)NCC(=O)N[C@@H](CCCCN)C(=O)N[C@@H](CC(=O)O)C(=O)NCC(=O)N[C@@H](Cc1ccc(O)cc1)C(=O)N2` [KDGYLVGNDGCKYSCFTRPGTYCANECSRVKGKDGYCYAWMACYCYSMPNWVKTWNRATNRCGR] was tested. Which MIC [1] did it give?
A: 27 µM (≈ 199 µg/mL)

Q: And the MIC [2]?
A: 30 µM (≈ 221 µg/mL)

Q: What about the MIC [3] of the same compound?
A: ≥ 65 µM

Q: What about the MIC [4] of the same compound?
A: 27 µM (≈ 199 µg/mL)

Q: What about the MIC [5] of the same compound?
A: 54 µM (≈ 398 µg/mL)

Q: What about the MIC [6] of the same compound?
A: ≥ 46 µM

Q: With `CC(C)C[C@H](NC(=O)[C@H](CC(C)C)NC(=O)[C@H](CC(C)C)NC(=O)[C@H](CCCCN)NC(=O)[C@H](CC(C)C)NC(=O)[C@H](CC(C)C)NC(=O)[C@H](CCCCN)NC(=O)[C@H](CC(C)C)NC(=O)[C@H](Cc1c[nH]c2ccccc12)NC(=O)[C@H](CC(C)C)NC(=O)[C@H](CCCCN)NC(=O)[C@H](CC(C)C)NC(=O)[C@H](CC(C)C)NC(=O)[C@H](CC(C)C)NC(=O)[C@H](CCCCN)NC(=O)[C@H](CC(C)C)NC(=O)[C@H](CC(C)C)NC(=O)[C@@H](N)CCCCN)C(=O)O` [KLLKLLLKLWLKLLKLLL] as the compound, how does the MIC [7] read?
A: ≥ 45.4 µM

Q: And the MIC [8]?
A: ≥ 45.4 µM

Q: And the MIC [9]?
A: ≥ 45.4 µM

Q: What about the MIC [10] of the same compound?
A: ≥ 45.4 µM

Q: What does the source list for `CC(=O)N[C@@H](CCCCN)C(=O)N[C@@H](Cc1c[nH]c2ccccc12)C(=O)N[C@@H](CCCCN)C(=O)N[C@@H](CCCCN)C(=O)N[C@@H](CC(C)C)C(=O)N1CCC[C@H]1C(=O)N[C@@H](CCCCN)C(=O)N[C@@H](CCCCN)C(=O)N[C@@H](CC(C)C)C(=O)N[C@@H](CC(C)C)C(=O)N[C@@H](CCCCN)C(=O)N[C@@H](CC(C)C)C(=O)N[C@@H](CC(C)C)C(N)=O` [KWKKLPKKLLKLL]?
A: MIC [11]: ≥ 100 µM; MIC [12]: 8.84 µM (≈ 14.8 µg/mL); MIC (Escherichia coli K91BK): ≥ 100 µM

Q: Which results are given for `CC[C@H](C)[C@H](NC(=O)CNC(=O)[C@@H](NC(=O)[C@H](CCCCN)NC(=O)[C@H](CCCCN)NC(=O)[C@H](Cc1ccccc1)NC(=O)[C@H](CC(C)C)NC(=O)[C@H](CCCCN)NC(=O)[C@H](Cc1c[nH]c2ccccc12)NC(=O)[C@@H](N)CCCCN)[C@@H](C)CC)C(=O)NCC(=O)N[C@@H](CCCCN)C(=O)N[C@@H](Cc1ccccc1)C(=O)N[C@@H](CC(C)C)C(=O)N[C@@H](Cc1cnc[nH]1)C(=O)N[C@@H](CO)C(=O)N[C@@H](C)C(=O)N[C@@H](CCCCN)C(=O)N[C@@H](CCCCN)C(=O)N[C@@H](Cc1ccccc1)C(N)=O` [KWKLFKKIGIGKFLHSAKKF]?
A: MIC [13]: 12.5 µM (≈ 30.1 µg/mL); MIC (Acinetobacter baumannii): 6.25 µM (≈ 15 µg/mL); MIC [14]: 1.1 µM (≈ 2.65 µg/mL); MIC [15]: 0.78 µM (≈ 1.88 µg/mL); MIC (Campylobacter coli): 29.4 µM (≈ 70.7 µg/mL); MIC (Campylobacter jejuni): 20.8 µM (≈ 50 µg/mL); MIC (Campylobacter lari): 20.8 µM (≈ 50 µg/mL); MIC [16]: 12.5 µM (≈ 30.1 µg/mL); MIC [17]: 6.25 µM (≈ 15 µg/mL); MIC [18]: 3.12 µM (≈ 7.51 µg/mL); MIC [19]: 8 µM and 4 µM; MIC [20]: 1.56 µM (≈ 3.75 µg/mL); MIC [21]: 0.78 µM (≈ 1.88 µg/mL); MIC [22]: ≥ 64 µM; MIC [23]: 1 µM (≈ 2.4 µg/mL); MIC [24]: 4 µM (≈ 9.62 µg/mL); MIC [25]: 3.12 µM (≈ 7.51 µg/mL); MIC [26]: 2.21 µM (≈ 5.3 µg/mL); MIC [27]: 0.78 µM (≈ 1.88 µg/mL); MIC [28]: 6.25 µM (≈ 15 µg/mL)

Q: What does the source list for `CSCC[C@H](N)C(=O)N[C@@H](C)C(=O)N[C@@H](CO)C(=O)N[C@@H](CCCN=C(N)N)C(=O)N[C@@H](C)C(=O)N[C@@H](C)C(=O)NCC(=O)N[C@@H](CC(C)C)C(=O)N[C@@H](C)C(=O)N[C@@H](C)C(=O)N[C@@H](CCCN=C(N)N)C(=O)N[C@@H](CC(C)C)C(=O)N[C@@H](C)C(=O)N[C@@H](CCCN=C(N)N)C(=O)N[C@@H](CC(C)C)C(=O)N[C@@H](C)C(=O)N[C@@H](CC(C)C)C(=O)N[C@@H](CCCN=C(N)N)C(=O)N[C@@H](C)C(=O)N[C@@H](CC(C)C)C(=O)O` [MASRAAGLAARLARLALRAL]?
A: MIC (Carnobacterium mobile): 0.05 µM (≈ 0.103 µg/mL); MIC (Fusarium oxysporum): 1 µM (≈ 2.05 µg/mL)

Q: With `CC[C@H](C)[C@H](NC(=O)[C@H](CCCCN)NC(=O)[C@H](CCCCN)NC(=O)[C@@H](N)Cc1c[nH]c2ccccc12)C(=O)N1CCC[C@H]1C(=O)N[C@@H](CCCCN)C(=O)N[C@@H](Cc1ccccc1)C(=O)N[C@@H](CC(C)C)C(=O)N[C@@H](Cc1cnc[nH]1)C(=O)N[C@@H](CC(C)C)C(=O)N[C@@H](CC(C)C)C(=O)N[C@@H](CCCCN)C(=O)N[C@@H](CCCCN)C(=O)N[C@@H](Cc1ccccc1)C(N)=O` [WKKIPKFLHLLKKF] as the compound, how does the MIC [29] read?
A: 1.56 µM (≈ 2.85 µg/mL)

Q: What about the MIC [15] of the same compound?
A: 0.78 µM (≈ 1.42 µg/mL)

Q: And the MIC [18]?
A: 6.25 µM (≈ 11.4 µg/mL)

Q: And the MIC (Proteus vulgaris)?
A: 12.5 µM (≈ 22.8 µg/mL)

Q: What about the MIC [20] of the same compound?
A: 3.12 µM (≈ 5.7 µg/mL)

Q: And the MIC [25]?
A: 3.12 µM (≈ 5.7 µg/mL)
